PMC4177084 (Journal of Thyroid Research, 2014)

Legend:
[1] = Macroscopic changes and body weight during treatment of xenograft-bearing mice; type: in vivo; details: nude mice bearing xenografts, during daily oral treatment
Protocol: Tumor cells were cultured in appropriate culture mediums. Cells were harvested with 0.05% or 0.25% (w/v) trypsin/EDTA and suspended with 50% (v/v) BD Matrigel (BD Biosciences, San Jose, CA) in the mixture of culture mediums at a density of 5–10 × 10^7 cells/mL. Then, 0.1-0.2 mL of the cell suspension was inoculated subcutaneously into the right flank region of each mouse. […] The tumor size was measured in two dimensions by using a caliper, and the volume was calculated by using the formula: tumor volume (mm^3) = 1/2 length (mm) × [width (mm)]^2. The change in tumor volume in the treated group relative to that in the control group was calculated according to the following formula: ΔT/C = (ΔT/ΔC) × 100%, where ΔT and ΔC are the change in tumor volume (i.e., growth) for the treated and vehicle control group, respectively. The percentage of tumor growth inhibition (%TGI) was calculated from the formula: [(1 − ΔT/ΔC) × 100].

RO82-W-1 cells = test: Antiproliferation assay (WST-8); type: cell-based, human; details: Homo sapiens, 72 h; RO82-W-1 (DTC), antiproliferative, 3 days
TCO-1 cells = test: Antiproliferation assay (WST-8); type: cell-based; details: Homo sapiens, 72 h; TCO-1 (ATC), antiproliferative, 3 days
WEE1 = target: T1, WEE1 (Homo sapiens, UniProt P30291); test: Cell free kinase inhibition assay; type: biochemical
T1 construct: purchased Carna Biosciences, Inc. (Kobe, Japan)

FAK = target: T2, FAK (Homo sapiens, UniProt Q05397); test: Cell free kinase inhibition assay; type: biochemical
T2 construct: purchased Carna Biosciences, Inc. (Kobe, Japan)
T2 sequence (Q05397 whole entry): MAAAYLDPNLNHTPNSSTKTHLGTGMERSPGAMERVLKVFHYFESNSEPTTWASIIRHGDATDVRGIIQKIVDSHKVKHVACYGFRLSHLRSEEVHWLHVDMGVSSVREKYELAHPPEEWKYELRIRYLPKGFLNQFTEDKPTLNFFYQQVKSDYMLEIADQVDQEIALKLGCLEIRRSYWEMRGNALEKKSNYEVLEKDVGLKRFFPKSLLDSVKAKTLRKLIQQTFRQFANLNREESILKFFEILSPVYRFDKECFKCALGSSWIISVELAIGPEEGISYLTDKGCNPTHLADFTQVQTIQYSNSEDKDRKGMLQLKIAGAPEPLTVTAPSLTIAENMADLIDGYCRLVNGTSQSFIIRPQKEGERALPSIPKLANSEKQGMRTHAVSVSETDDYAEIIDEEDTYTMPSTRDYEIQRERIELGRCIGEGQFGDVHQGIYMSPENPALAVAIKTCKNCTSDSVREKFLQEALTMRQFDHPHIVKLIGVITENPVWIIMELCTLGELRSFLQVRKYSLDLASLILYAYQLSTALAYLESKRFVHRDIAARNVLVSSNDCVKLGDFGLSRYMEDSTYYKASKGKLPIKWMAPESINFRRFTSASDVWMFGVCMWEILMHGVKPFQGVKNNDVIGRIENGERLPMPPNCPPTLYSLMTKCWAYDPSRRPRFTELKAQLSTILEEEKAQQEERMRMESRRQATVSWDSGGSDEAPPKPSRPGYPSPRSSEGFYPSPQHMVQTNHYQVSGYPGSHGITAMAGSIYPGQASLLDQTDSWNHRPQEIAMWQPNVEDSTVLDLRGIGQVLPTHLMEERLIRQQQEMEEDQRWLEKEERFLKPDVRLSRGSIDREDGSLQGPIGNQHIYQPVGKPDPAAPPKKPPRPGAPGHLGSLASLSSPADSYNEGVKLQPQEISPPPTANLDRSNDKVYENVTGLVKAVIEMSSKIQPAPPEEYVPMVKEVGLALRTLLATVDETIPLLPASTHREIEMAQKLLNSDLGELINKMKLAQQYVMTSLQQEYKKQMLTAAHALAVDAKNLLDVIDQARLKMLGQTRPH

TT cells = test: Antiproliferation assay (WST-8); type: cell-based; details: Homo sapiens, 240 h; TT (MTC), antiproliferative, 10 days; read-out: IC50
LCK = target: T3, LCK (Homo sapiens, UniProt P06239); test: Cell free kinase inhibition assay; type: biochemical
T3 construct: purchased Carna Biosciences, Inc. (Kobe, Japan)
T3 sequence (P06239 whole entry): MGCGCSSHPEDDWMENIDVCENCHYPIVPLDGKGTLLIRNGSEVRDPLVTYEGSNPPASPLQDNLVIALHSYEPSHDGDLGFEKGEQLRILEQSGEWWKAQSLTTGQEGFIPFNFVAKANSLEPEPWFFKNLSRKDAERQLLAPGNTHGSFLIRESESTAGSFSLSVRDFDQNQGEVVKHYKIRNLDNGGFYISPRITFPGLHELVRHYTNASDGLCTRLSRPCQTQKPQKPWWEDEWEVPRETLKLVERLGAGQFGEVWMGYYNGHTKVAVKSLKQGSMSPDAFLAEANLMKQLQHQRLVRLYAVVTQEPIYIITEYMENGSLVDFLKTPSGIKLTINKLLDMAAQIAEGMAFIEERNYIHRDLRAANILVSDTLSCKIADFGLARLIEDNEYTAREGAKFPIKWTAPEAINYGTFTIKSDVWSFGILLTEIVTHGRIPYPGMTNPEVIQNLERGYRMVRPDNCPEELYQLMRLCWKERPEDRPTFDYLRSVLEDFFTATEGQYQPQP

FLT3 = target: T4, FLT3 (Homo sapiens, UniProt P36888); test: Cell free kinase inhibition assay; type: biochemical
T4 construct: purchased Carna Biosciences, Inc. (Kobe, Japan)

PKACα = target: T5, PKACα (Homo sapiens, UniProt P17612); test: Cell free kinase inhibition assay; type: biochemical
T5 construct: purchased Carna Biosciences, Inc. (Kobe, Japan)

HGK = target: T6, HGK (Homo sapiens, UniProt O95819); test: Cell free kinase inhibition assay; type: biochemical
T6 construct: purchased Carna Biosciences, Inc. (Kobe, Japan)

KHM-5M cells = test: Antiproliferation assay (WST-8); type: cell-based; details: Homo sapiens, 72 h; KHM-5M (ATC), antiproliferative, 3 days
MUSK = target: T7, MUSK (Homo sapiens, UniProt O15146); test: Cell free kinase inhibition assay; type: biochemical
T7 construct: purchased Carna Biosciences, Inc. (Kobe, Japan)
T7 sequence (O15146 24-869): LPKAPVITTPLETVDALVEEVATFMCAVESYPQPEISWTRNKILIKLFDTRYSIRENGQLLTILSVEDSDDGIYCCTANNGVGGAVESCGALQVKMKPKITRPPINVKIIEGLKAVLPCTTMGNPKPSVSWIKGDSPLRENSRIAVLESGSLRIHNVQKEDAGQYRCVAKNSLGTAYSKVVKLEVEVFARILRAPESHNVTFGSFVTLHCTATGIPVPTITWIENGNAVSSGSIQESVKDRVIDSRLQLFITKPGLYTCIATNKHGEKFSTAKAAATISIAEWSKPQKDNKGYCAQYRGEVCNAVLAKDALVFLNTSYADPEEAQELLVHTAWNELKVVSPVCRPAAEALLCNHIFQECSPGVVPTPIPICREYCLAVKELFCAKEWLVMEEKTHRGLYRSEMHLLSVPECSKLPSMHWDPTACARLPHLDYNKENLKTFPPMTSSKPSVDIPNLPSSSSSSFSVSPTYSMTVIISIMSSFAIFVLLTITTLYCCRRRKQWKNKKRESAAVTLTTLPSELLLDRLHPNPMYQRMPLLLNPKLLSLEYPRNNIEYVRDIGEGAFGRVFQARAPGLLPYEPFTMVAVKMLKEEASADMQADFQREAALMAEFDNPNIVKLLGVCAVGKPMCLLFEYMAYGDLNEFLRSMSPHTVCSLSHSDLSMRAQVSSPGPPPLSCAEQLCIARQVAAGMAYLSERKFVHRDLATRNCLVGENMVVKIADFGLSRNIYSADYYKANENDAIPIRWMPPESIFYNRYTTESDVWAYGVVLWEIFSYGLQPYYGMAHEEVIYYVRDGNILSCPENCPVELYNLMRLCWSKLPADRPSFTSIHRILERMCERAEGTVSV

K1 xenograft = test: Human thyroid cancer xenograft model, tumor growth; type: in vivo, nude mice; details: K1 xenograft, 1, 3, and 10 mg/kg oral once daily 14 days
Protocol: (§1) Nude mice (CAnN.Cg-Foxn1nu/CrlCrlj, female, 5-6 weeks old) were obtained from Charles River Laboratories Japan (Kanagawa, Japan). Mice were maintained under specific pathogen-free conditions and housed in barrier facilities on a 12 h light/dark cycle, with food and water ad libitum. All procedures using laboratory animals were done in accordance with all applicable institutional and government regulatory guidelines and policies and were performed in an animal facility accredited by the Center for Accreditation of Laboratory Animal Care of the Japan Health Sciences Foundation. Tumor cells were cultured in appropriate culture mediums. […] Then, 0.1-0.2 mL of the cell suspension was inoculated subcutaneously into the right flank region of each mouse. […] The tumor size was measured in two dimensions by using a caliper, and the volume was calculated by using the formula: tumor volume (mm^3) = 1/2 length (mm) × [width (mm)]^2. The change in tumor volume in the treated group relative to that in the control group was calculated according to the following formula: ΔT/C = (ΔT/ΔC) × 100%, where ΔT and ΔC are the change in tumor volume (i.e., growth) for the treated and vehicle control group, respectively. The percentage of tumor growth inhibition (%TGI) was calculated from the formula: [(1 − ΔT/ΔC) × 100].

TT xenograft = test: Human thyroid cancer xenograft model, tumor growth; type: in vivo, nude mice
Protocol: as §1

[2] = tested on: CCDC-RET, human DTC TPC1 cell lines; details: cited from earlier work
Nthy-ori 3-1 cells = test: Antiproliferation assay (WST-8); type: cell-based, human; details: Homo sapiens, 72 h; Nthy-ori 3-1 (normal thyroid), antiproliferative, 3 days
EPHA1 = target: T8, EPHA1 (Homo sapiens, UniProt P21709); test: Cell free kinase inhibition assay; type: biochemical
T8 construct: purchased Carna Biosciences, Inc. (Kobe, Japan)

FTC-238 cells = test: Antiproliferation assay (WST-8); type: cell-based, human; details: Homo sapiens, 72 h; FTC-238 (DTC), antiproliferative, 3 days
KIT(D816V) = target: T9, KIT(D816V) (Homo sapiens, UniProt P10721, D816V); test: Cell free kinase inhibition assay; type: biochemical
T9 construct: purchased Carna Biosciences, Inc. (Kobe, Japan)
T9 sequence (P10721 26-976 D816V): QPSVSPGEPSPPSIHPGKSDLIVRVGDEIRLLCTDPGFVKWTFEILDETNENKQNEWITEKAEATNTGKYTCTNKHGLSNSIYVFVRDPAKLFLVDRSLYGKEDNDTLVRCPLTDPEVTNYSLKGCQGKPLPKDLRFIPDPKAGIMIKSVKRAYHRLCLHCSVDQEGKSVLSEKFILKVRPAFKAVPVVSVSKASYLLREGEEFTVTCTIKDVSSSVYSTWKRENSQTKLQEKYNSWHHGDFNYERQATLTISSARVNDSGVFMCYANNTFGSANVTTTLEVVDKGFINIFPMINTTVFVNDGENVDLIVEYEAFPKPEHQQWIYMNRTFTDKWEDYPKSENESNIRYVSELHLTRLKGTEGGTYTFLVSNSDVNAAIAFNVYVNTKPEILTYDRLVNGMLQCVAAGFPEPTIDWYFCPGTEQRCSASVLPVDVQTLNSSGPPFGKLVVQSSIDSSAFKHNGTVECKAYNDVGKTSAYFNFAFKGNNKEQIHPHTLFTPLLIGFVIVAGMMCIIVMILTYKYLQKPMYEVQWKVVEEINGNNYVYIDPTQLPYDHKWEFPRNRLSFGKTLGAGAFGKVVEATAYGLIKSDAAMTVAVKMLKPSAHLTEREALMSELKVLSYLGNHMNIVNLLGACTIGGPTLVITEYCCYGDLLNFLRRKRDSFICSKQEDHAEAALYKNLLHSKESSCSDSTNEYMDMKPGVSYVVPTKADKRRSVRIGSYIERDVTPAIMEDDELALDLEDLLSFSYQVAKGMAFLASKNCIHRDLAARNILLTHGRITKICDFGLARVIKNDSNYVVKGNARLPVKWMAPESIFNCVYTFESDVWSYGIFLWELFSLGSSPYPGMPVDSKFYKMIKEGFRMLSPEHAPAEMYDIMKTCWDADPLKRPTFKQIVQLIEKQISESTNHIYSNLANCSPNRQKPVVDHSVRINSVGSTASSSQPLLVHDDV

COT = target: T10, COT (Homo sapiens, UniProt P41279); test: Cell free kinase inhibition assay; type: biochemical
T10 construct: purchased Carna Biosciences, Inc. (Kobe, Japan)
Protocol: […]. Briefly, each test compound was mixed with enzyme, substrate, ATP, and Mg under appropriate buffer conditions for the ELISA or MSA. […] IC50 values (the half maximal inhibitory concentration) were calculated from concentrations versus % inhibition curves.

SGK3 = target: T11, SGK3 (Homo sapiens, UniProt Q96BR1); test: Cell free kinase inhibition assay; type: biochemical
T11 construct: purchased Carna Biosciences, Inc. (Kobe, Japan)

MET = target: T12, MET (Homo sapiens, UniProt P08581); test: Cell free kinase inhibition assay; type: biochemical
T12 construct: purchased Carna Biosciences, Inc. (Kobe, Japan)

PIM1 = target: T13, PIM1 (Homo sapiens, UniProt P11309); test: Cell free kinase inhibition assay; type: biochemical
T13 construct: purchased Carna Biosciences, Inc. (Kobe, Japan)
T13 sequence (P11309 whole entry): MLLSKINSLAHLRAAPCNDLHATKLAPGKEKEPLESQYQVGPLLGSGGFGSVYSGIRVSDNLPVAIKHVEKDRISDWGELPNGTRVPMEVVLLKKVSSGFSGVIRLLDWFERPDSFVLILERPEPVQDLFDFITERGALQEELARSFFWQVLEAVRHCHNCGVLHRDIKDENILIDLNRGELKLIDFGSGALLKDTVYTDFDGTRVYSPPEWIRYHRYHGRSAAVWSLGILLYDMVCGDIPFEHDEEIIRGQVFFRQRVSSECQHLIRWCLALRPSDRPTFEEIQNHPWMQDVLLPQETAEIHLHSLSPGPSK

KIT(T670I) = target: T14, KIT(T670I) (Homo sapiens, UniProt P10721, T670I); test: Cell free kinase inhibition assay; type: biochemical
T14 construct: purchased Carna Biosciences, Inc. (Kobe, Japan)
T14 sequence (P10721 26-976 T670I): as the sequence (P10721 26-976 D816V) above, with T645I, V791D counted along it

HER2 = target: T15, HER2 (Homo sapiens, UniProt P04626); test: Cell free kinase inhibition assay; type: biochemical
T15 construct: purchased Carna Biosciences, Inc. (Kobe, Japan)

AKT1 = target: T16, AKT1 (Homo sapiens, UniProt P31749); test: Cell free kinase inhibition assay; type: biochemical
T16 construct: purchased Carna Biosciences, Inc. (Kobe, Japan)

FLT1/VEGFR1 = target: T17, FLT1/VEGFR1 (Homo sapiens, UniProt P17948); test: Cell free kinase inhibition assay; type: biochemical
T17 construct: purchased Carna Biosciences, Inc. (Kobe, Japan)

FLT4/VEGFR3 = target: T18, FLT4/VEGFR3 (Homo sapiens, UniProt P35916); test: Cell free kinase inhibition assay; type: biochemical
T18 construct: purchased Carna Biosciences, Inc. (Kobe, Japan)
T18 sequence (P35916 25-1363): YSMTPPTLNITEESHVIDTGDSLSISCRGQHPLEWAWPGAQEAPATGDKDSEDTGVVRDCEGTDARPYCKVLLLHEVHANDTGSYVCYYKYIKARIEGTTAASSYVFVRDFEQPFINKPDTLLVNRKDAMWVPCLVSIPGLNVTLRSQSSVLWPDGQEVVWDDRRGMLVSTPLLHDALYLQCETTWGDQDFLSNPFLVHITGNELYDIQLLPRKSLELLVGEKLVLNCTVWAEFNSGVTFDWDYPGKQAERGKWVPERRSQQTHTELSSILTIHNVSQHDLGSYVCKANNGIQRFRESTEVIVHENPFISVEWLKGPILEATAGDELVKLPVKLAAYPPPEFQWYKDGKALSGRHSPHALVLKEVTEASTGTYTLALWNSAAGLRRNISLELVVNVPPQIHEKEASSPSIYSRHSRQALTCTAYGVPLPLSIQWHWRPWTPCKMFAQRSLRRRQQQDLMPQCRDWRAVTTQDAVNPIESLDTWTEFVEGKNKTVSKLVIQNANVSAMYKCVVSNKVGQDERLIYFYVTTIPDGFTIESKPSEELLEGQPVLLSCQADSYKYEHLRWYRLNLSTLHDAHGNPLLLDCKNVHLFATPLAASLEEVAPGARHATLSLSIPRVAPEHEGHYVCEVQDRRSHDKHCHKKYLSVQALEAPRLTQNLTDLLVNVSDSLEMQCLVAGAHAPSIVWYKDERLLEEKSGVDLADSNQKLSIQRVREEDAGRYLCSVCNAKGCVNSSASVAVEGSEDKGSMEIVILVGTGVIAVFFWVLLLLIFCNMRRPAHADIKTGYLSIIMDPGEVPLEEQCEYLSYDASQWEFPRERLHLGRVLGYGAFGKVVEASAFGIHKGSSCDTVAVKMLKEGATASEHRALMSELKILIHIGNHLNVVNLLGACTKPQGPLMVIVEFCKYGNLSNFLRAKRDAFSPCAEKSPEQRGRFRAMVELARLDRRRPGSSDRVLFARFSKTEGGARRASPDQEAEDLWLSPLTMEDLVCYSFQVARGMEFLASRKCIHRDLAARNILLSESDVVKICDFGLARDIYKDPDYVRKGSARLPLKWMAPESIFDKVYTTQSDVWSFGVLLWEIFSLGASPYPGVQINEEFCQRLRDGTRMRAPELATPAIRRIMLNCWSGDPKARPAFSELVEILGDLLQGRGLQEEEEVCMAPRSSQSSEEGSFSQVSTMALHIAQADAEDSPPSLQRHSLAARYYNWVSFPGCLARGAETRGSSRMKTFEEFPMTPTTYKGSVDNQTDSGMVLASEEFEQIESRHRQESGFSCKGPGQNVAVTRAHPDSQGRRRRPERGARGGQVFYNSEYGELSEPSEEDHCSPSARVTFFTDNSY

## COc1cc2nccc(Oc3ccc(NC(=O)NC4CC4)c(Cl)c3)c2cc1C(N)=O [Lenvatinib, Lenvatinib mesilate]
[1]
  macroscopic changes or loss of body weight: no macroscopic changes or loss of body weight were observed
RO82-W-1 cells
  IC50: 3.8 µM
TCO-1 cells
  IC50: 28 µM
WEE1
  IC50: > 10 µM
FAK
  IC50: > 10 µM
TT cells
  IC50: 0.078 µM
LCK
  IC50: 0.13 µM
FLT3
  IC50: 4.1 µM
PKACα
  IC50: > 10 µM
HGK
  IC50: 0.4 µM
KHM-5M cells
  IC50: 28 µM
MUSK
  IC50: > 10 µM
K1 xenograft
  antitumor activity: significant antitumor activity
TT xenograft; TT xenografts, 100 mg/kg oral once daily 29 days
  tumor volume change: tumor shrinkage
TT xenograft; TT xenografts, 10, 30, and 100 mg/kg oral once daily 29 days
  in vivo tumor growth: inhibited in vivo tumor growth of TT xenografts in a dose-dependent manner
[2]
  phosphorylation of CCDC-RET, in vitro proliferation and in vivo tumor growth of TPC1: inhibits
Nthy-ori 3-1 cells
  IC50: 15 µM
EPHA1
  IC50: 5.1 µM
FTC-238 cells
  IC50: 18 µM
KIT(D816V)
  IC50: > 10 µM
COT
  IC50: > 10 µM
SGK3
  IC50: > 10 µM
MET
  IC50: 0.52 µM
PIM1
  IC50: > 10 µM
KIT(T670I)
  IC50: 0.41 µM
HER2
  IC50: > 10 µM
AKT1
  IC50: > 10 µM
FLT1/VEGFR1
  IC50: 0.0047 µM
FLT4/VEGFR3
  IC50: 0.0023 µM
